These results are taken from patent US20240252457A1, “Treatment or Prevention of Ischaemia Reperfusion Injury” (Cambridge Enterprise Limited, priority 2021, published 2024).

A short description of one data set: pKa and ionisation state. It is filed as physicochemical. The following applies: pH 6.4. The source says: In 3A3OPA, one carboxylic acid has been replaced with a neutral amido group leaving a single carboxylic acid of pKa˜4.75. Thus, at pH 7.4 3A3OPA resembles the monocarboxylate form of malonate.
The subject of the next data set is H9c2 myoblasts. Nature of the data set: Intracellular malonate and succinate in H9c2 myoblasts at different pH (LC-MS/MS). The following applies: H9c2, DSM 1 or 5 mM, 15 min. Format: cell-based.
Data set [1] relates to C2C12 mouse myoblast cells. Nature of the data set: Malonate uptake in vitro in C2C12 cells (dose and time course). It is filed as cell-based. The following applies: for malonate uptake into cells (words): 0.25, 1 or 5 mM, 0 to 240 min; for intracellular malonate concentration: 5 min, cell volume 260 mg protein/ml. Here is the method:
We first explored whether malonate could be taken up by cells in culture. C2C12 mouse myoblast cells were plated at 300,000 cells/well and adhered overnight. […] Cells were extracted for mass spectrometry with 500 μl extraction buffer (50% methanol, 30% acetonitrile and 20% water) with 1 nmol ^13C-malonate internal standard centrifuged to remove insoluble debris.

The test system of the next data set is C2C12 cells. The data set is described as follows: Malonate / 3A3OPA uptake in C2C12 cells at different pH (LC-MS/MS). It is filed as cell-based, mouse. The following applies: for intracellular uptake, effect of lowered pH: 15 min, pH 6 vs 7.4 (and 8). How it is done: C2C12 cells were incubated with malonate at pH 8, 7.4 or 6 and the levels within cells measured by LC-MS/MS (mean±/−S.E.M., n=4).
C2C12 cells were treated with either malonate or 3-amino-3-oxypropanoic acid at pH 7.4 or 6 and their intracellular levels measured by LC-MS/MS (mean±/−S.E.M., n=6).

Data set [2] can be described thus: Malonate uptake in vivo, tissue levels after tail vein bolus. Also on record: species or system mouse. The following applies: 160 mg/kg tail vein bolus, 5 min. Here is the method:
For tissue analysis, tissues were weighed and extracted in 25 μl/mg extraction buffer containing internal standard and homogenised in a Precellys 24 homogeniser. Homogenates were centrifuged to remove insoluble debris. Extracts were analysed by LC-MS/MS and the levels of malonate assessed by interpolation of a malonate standard curve.

For data set [3] the following is noted: cited from earlier work.
In the next data set the test system is MCAO model. Nature of the data set: Transient middle cerebral artery occlusion (MCAO) stroke model. Format: in vivo, mice. The following applies: i.v. for 20 min starting just prior to reperfusion; 45 min ischaemia, 2 h reperfusion. The source says: Male C57B16J mice, 6-8 weeks old, were anesthetized with 3% isoflurane and anaesthesia was maintained on 1.5-2% isoflurane. A Doppler flowmetry probe (Perimed, Sweden) was attached to the skull to continuously monitor the cerebral blood flow. Left common carotid artery (CCA) and left external carotid artery were exposed and permanently ligated. Left internal common carotid artery was clamped temporarily. Next, an incision was made on CCA and a filament with a silicon tip (0.22 mm in diameter, 2-3 mm in length, Doccol, USA) was inserted and guided forward into internal carotid artery until it reached middle cerebral artery (MCA). The occlusion of MCA was confirmed by seeing at least 70% drop in cerebral blood flow. […]
At the end of reperfusion, mice were sacrificed by cervical dislocation; brain was collected and sliced at 2 mm thicknesses and stained with 2% triphenyltetrazolium chloride in saline at 37 C for 10-15 min. […] The healthy tissue area (red-stained) in both hemispheres was measured using ImageJ. The infarct volume % was calculated by first calculating the volume of healthy tissue in each hemisphere (Σ area of each slice×thickness of slice), then by the formula: ((volume of healthy tissue in uninjured hemisphere−volume of healthy tissue in injured hemisphere)÷volume of healthy tissue in uninjured hemisphere)×100.

Data set [4] has as its system murine Langendorff perfused heart. Nature of the data set: Malonate uptake in Langendorff-perfused hearts (pH- and ischaemia-dependence, LC-MS/MS). Here is the method: Malonate (5 mM) was infused into Langendorff perfused mouse hearts at either pH 7.4 or 6. The heart flushed to remove vessel malonate and malonate levels measured by LC-MS/MS (mean±/−S.E.M., n=4).
Langendorff mouse hearts were reperfused with malonate (5 mM) after either 0, 5, 10, or 20 min ischaemia). The heart flushed to remove vessel malonate and malonate levels measured by LC-MS/MS (mean±/−S.E.M., n=4-5).

A further data set deals with Langendorff heart. Nature of the data set: Lactate levels in the Langendorff heart after 20 min ischemia and 1 min reperfusion. The following applies: 5 mM DSM, 20 min ischemia. The source says:
Compared to reperfusion alone, lactate levels decreased in the malonate-treated hearts.

For the next data set, the system named is murine LAD MI model. The data set is described as follows: Infarct size in murine LAD MI model (TTC staining). Format: in vivo. How it is done: Mice were subjected to left anterior descending coronary artery ligation heart attack model (30 min ischaemia, 2 hr reperfusion) and malonate infused either before the onset of ischaemia or during initial reperfusion. Infarct size was determined by staining the heart with triphenyltetrazolium chloride (mean±/−S.E.M., n=5-8).
Thus, malonate was confirmed to be cardioprotective when administered at the point of reperfusion after ischaemia.
Cyclosporin A is a known inhibitor of the mitochondrial permeability transition pore (PTP).

A further data set deals with T1, MCT1 (Mus musculus, UniProt P53986).
T1 construct: from tissue; host or cells: isolated Langendorff-perfused murine heart
T1 sequence (P53986 1-493): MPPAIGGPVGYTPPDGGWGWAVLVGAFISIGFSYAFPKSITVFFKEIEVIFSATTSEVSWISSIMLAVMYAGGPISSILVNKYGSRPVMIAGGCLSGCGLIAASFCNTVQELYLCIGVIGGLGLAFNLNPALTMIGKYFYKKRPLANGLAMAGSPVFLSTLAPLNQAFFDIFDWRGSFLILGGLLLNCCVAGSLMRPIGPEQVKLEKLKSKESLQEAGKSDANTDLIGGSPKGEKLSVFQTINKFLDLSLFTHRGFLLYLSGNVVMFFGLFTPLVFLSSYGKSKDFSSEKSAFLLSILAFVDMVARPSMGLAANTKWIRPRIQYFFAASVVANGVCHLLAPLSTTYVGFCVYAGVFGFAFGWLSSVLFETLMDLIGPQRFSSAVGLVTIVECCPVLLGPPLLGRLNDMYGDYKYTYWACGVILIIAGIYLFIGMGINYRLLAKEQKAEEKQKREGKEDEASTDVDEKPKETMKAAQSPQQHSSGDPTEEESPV
T1 sequence (P18572 140-389 partner limits assumed): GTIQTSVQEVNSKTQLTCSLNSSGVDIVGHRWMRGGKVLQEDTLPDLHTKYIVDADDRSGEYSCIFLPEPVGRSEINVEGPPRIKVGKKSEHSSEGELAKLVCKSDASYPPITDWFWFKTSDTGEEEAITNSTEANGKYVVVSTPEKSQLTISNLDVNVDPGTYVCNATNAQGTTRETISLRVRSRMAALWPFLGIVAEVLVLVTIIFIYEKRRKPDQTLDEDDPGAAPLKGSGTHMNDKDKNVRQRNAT
The data set is described as follows: Malonate levels in Langendorff hearts perfused at pH 6 with DSM ± lactate or MCT1 inhibitor. Also on record: species or system murine. The following applies: pH 6, 5 min, 5 mM DSM; lactate 50 mM, AR-C141990 10 μM. The source says: Malonate uptake into the Langendorff perfused heart was blocked by the MCT1 inhibitor AR-C141990, in the perfusion medium, and by excess lactate.

For data set [5] the following is noted: cited from earlier work. This is another data set of the same source.

“Also recorded” adds a separate entry of the source.

For the compound `O=C([O-])CC(=O)[O-].[Na+].[Na+]` [DSM, disodium malonate], the “fraction in monocarboxylate form” value in “pKa and ionisation state” is “approximately 16%”. In addition, in the data set on H9c2 myoblasts, the “levels of malonate in the cell at pH 6 vs pH 7.4 or 8” value is “significantly higher” and the “succinate levels (malonate-dependent SDH inhibition) at low pH” value is on record as “greater succinate accumulation”. The compound also displayed an intracellular malonate levels in data set [1] (5 mM DSM, after 5 min) of approximately 2 nmol/mg protein. Besides, the “malonate uptake into cells (words)” value in data set [1] (listed as Malonate) was “both dose and time-dependent”. In data set [1] (listed as disodium malonate), the “malonate uptake into cells (words)” value was “rapid malonate uptake”. Besides, in data set [1] (250 μM malonate), the intracellular malonate concentration result was “about 50 μM”. The intracellular malonate concentration in data set [1] (5 mM malonate) was approximately 500 µM. In data set [1] (incubated with 250 μM disodium malonate), the intracellular malonate levels was 0.2-0.4 nmol/mg protein. The “intracellular uptake, effect of lowered pH” value in the data set on C2C12 cells is reported as “greatly enhanced”. Moreover, in data set [2], the “tissue levels of malonate, brain” value is “uptake in the brain”; the “tissue levels of malonate, heart” value is “significant amounts”; the “tissue levels of malonate, kidney” value was “particularly high”; the “tissue levels of malonate, liver” value was “significant amounts”. Also, the “protection against myocardial IR injury” value in [3] (small animal ex vivo and large animal models) is recorded as “protective”. Also, in the data set with MCAO model, the “necrotic brain infarct volume” value is “decreased”. For the same compound, the “malonate uptake in heart after ischaemia” value in [4] (0, 5, 10 or 20 min ischaemia, reperfused with 5 mM DSM pH 7.4) is recorded as “ischemic time-dependent uptake”. Further, the “malonate uptake in heart, infused at low pH vs neutral pH” value in data set [4] (5 mM DSM, pH 6 vs pH 7.4) is recorded as “greatly enhanced”. For the same compound, in the data set on Langendorff heart, the “lactate levels compared to reperfusion alone” value is “decreased”. The “infarct size (cardioprotection)” value in the data set on murine LAD MI model (160 mg/kg infusion at reperfusion) is given as “cardioprotective”. The “infarct size, cardioprotection in combination with cyclosporin A” value in the data set on murine LAD MI model (DSM 160 mg/kg with cyclosporin A 10 mg/kg at reperfusion) is “additive to cyclosporin A alone”.
For `CC(C)Cn1c(=O)n(C)c(=O)c2c(C(=O)N3CC[C@@H](O)C3)c(Cc3ccnc4ccccc34)sc21` [AR-C141990], the “effect on malonate uptake into the Langendorff perfused heart” value on MCT1 is on record as “blocked”.
Still for that read-out and setting: with `CC(O)C(=O)O` (stereo not shown) [lactate] the entry was “blocked”.
On to `NC(=O)CC(=O)O` [3A3OPA, 3-amino-3-oxypropanoic acid], for which the “uptake into cells at pH 7.4 compared with malonate” value in the data set with C2C12 cells (5 mM, pH 7.4) is given as “more 3A3OPA being taken up into cells at pH 7.4 than malonate”. In addition, in the data set with C2C12 cells, the “intracellular uptake, effect of lowered pH” value was “changed negligibly”. Further, the “pKa of single carboxylic acid” value in data set [5] was approximately 4.75.
As to `COC(=O)CC(=O)OC` [DMM, dimethyl malonate], the “protection against IR injury” value in data set [3] (administered prior to and throughout ischaemia (WO 2016/001686)) is “protective”. In addition, the “necrotic brain infarct volume” value in the data set on MCAO model is reported as “not to be protective; also recorded: no significant difference”.
